Data: ChEMBL document CHEMBL4364273, “Discovery of SHR1653, a Highly Potent and Selective OTR Antagonist with Improved Blood-Brain Barrier Penetration” (ACS Med Chem Lett, 2019)
In brackets after ≈: the same amount, converted by molar mass.

Experiments:
[1] = Solubility of compound in FASSIF at pH 6.5; type: physicochemical
[2] = Half-life in Sprague-Dawley rat at 30 mg/kg, po measured for 24 hrs by LC-MS/MS analysis; type: ADME, organism-based; conditions: in vivo
[3] = biological target: Cytochrome P450 2C9 (Homo sapiens, UniProt P11712); assay: Inhibition of human recombinant CYP2C9; type: ADME
[4] = AUC (0 to 24 hrs) in Beagle dog at 2 mg/kg, po by LC-MS/MS analysis; type: ADME, organism-based, Canis lupus familiaris; design: time < 24 hr, dose 2 mg/kg, route oral; conditions: in vivo
[5] = test system: Rattus norvegicus; assay: Anti-premature ejaculation activity in anesthetized oxytocin-induced uterine contraction Sprague-Dawley rat model assessed as decrease in intraluminal uterine pressure at 10 mg/kg, po treated for 20 mins and 1 hr later treated with oxytocin and measured for 15 to 30 mins relative to control; type: functional
[6] = test system: Rattus norvegicus; assay: Anti-premature ejaculation activity in anesthetized oxytocin-induced uterine contraction Sprague-Dawley rat model assessed as decrease in intraluminal uterine pressure at 100 mg/kg, po treated for 20 mins and 1 hr later treated with oxytocin and measured for 15 to 30 mins relative to control; type: functional
[7] = biological target: Voltage-gated inwardly rectifying potassium channel KCNH2 (Homo sapiens, UniProt Q12809); assay: Inhibition of human ERG
[8] = Half-life in Beagle dog at 20 mg/kg, po measured for 24 hrs by LC-MS/MS analysis; type: ADME, organism-based, Canis lupus familiaris; conditions: in vivo
[9] = Protein binding in human plasma; type: ADME, cell-free; conditions: read-out: PPB (converted)
[10] = Tmax in Sprague-Dawley rat at 150 mg/kg, po measured for 24 hrs by LC-MS/MS analysis; type: ADME, organism-based; conditions: in vivo
[11] = Unbound fraction in Sprague-Dawley rat plasma by LC-MS/MS analysis; type: ADME, cell-free
[12] = organism: Homo sapiens; assay: Selectivity ratio of IC50 for human vasopressin V1A receptor expressed in HEK293 cells to IC50 for human OTR expressed in HEK293 cells; type: cell-based
[13] = Solubility of compound in PBS at pH 7.4; type: physicochemical
[14] = test system: Rattus norvegicus; assay: Anti-premature ejaculation activity in anesthetized oxytocin-induced uterine contraction Sprague-Dawley rat model assessed as decrease in intraluminal uterine pressure at 30 mg/kg, po treated for 20 mins and 1 hr later treated with oxytocin and measured for 15 to 30 mins relative to control; type: functional
[15] = Tmax in Beagle dog at 2 mg/kg, po measured for 24 hrs by LC-MS/MS analysis; type: ADME, organism-based, Canis lupus familiaris; conditions: in vivo
[16] = biological target: T1, Cytochrome P450 1A2 (Homo sapiens, UniProt P05177); assay: Inhibition of human recombinant CYP1A2; type: ADME
T1 sequence (P05177 whole entry): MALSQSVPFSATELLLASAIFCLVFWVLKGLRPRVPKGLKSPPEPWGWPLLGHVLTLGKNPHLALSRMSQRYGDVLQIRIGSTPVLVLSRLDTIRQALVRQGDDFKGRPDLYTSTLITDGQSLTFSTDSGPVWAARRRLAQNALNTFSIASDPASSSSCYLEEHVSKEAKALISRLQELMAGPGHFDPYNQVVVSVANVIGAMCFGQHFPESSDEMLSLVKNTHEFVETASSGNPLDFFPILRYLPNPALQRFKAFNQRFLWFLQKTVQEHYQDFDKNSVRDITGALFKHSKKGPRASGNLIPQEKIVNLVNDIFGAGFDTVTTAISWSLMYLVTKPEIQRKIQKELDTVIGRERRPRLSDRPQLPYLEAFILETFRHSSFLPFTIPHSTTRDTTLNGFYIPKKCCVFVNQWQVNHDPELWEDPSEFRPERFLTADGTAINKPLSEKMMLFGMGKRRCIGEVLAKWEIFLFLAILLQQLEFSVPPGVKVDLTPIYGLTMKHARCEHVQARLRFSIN

[17] = organism: Homo sapiens; assay: Selectivity ratio of IC50 for human vasopressin V1B receptor expressed in HEK293 cells to IC50 for human OTR expressed in HEK293 cells; type: cell-based
[18] = Tmax in Sprague-Dawley rat at 30 mg/kg, po measured for 24 hrs by LC-MS/MS analysis; type: ADME, organism-based; conditions: in vivo
[19] = Unbound brain-to-plasma concentration ratio in Sprague-Dawley rat by LC-MS/MS analysis; type: ADME, cell-free; conditions: read-out: K(p,uu,brain)
[20] = Cmax in Sprague-Dawley rat at 30 mg/kg, po measured for 24 hrs by LC-MS/MS analysis; type: ADME, organism-based; design: dose 30 mg/kg, route oral; conditions: in vivo
[21] = Safety index, ratio of NOAEL in rat to EC50 for inhibition of oxytocin-induced contractile response in po dosed Sprague-Dawley rat; type: toxicity, organism-based; conditions: in vivo
[22] = Acute toxicity in rat assessed as increase in urinary output at 900 mg/kg measured for 7 days; type: organism-based; conditions: in vivo, 168 h
[23] = AUC (0 to 24 hrs) in Sprague-Dawley rat at 2 mg/kg, po by LC-MS/MS analysis; type: ADME, organism-based; design: time < 24 hr, dose 2 mg/kg, route oral; conditions: in vivo
[24] = Half-life in nude mouse at 4 mg/kg, po measured for 24 hrs by LC-MS/MS analysis; type: ADME, organism-based; conditions: in vivo
[25] = AUC (0 to 24 hrs) in nude mouse at 4 mg/kg, po by LC-MS/MS analysis; type: ADME, organism-based; design: time < 24 hr, dose 4 mg/kg, route oral; conditions: in vivo
[26] = Half-life in Beagle dog at 2 mg/kg, po measured for 24 hrs by LC-MS/MS analysis; type: ADME, organism-based, Canis lupus familiaris; conditions: in vivo
[27] = AUC (0 to 24 hrs) in Sprague-Dawley rat at 30 mg/kg, po by LC-MS/MS analysis; type: ADME, organism-based; design: dose 30 mg/kg, time < 24 hr, route oral; conditions: in vivo
[28] = Acute toxicity in rat assessed as effect on body weight at up to 300 mg/kg measured for 7 days; type: organism-based; conditions: in vivo, 168 h
[29] = Cmax in Beagle dog at 2 mg/kg, po measured for 24 hrs by LC-MS/MS analysis; type: ADME, organism-based, Canis lupus familiaris; design: dose 2 mg/kg, route oral; conditions: in vivo
[30] = Cmax in nude mouse at 4 mg/kg, po measured for 24 hrs by LC-MS/MS analysis; type: ADME, organism-based; design: dose 4 mg/kg, route oral; conditions: in vivo
[31] = Clearance in nude mouse at 1 mg/kg, iv measured for 24 hrs by LC-MS/MS analysis; type: ADME, organism-based; conditions: in vivo
[32] = Cmax in Sprague-Dawley rat at 2 mg/kg, po measured for 24 hrs by LC-MS/MS analysis; type: ADME, organism-based; design: dose 2 mg/kg, route oral; conditions: in vivo
[33] = Acute toxicity in rat assessed as effect on hematological parameters up to 300 mg/kg measured for 7 days; type: organism-based; conditions: in vivo, 168 h
[34] = Acute toxicity in rat assessed as effect on clinical parameters up to 300 mg/kg measured for 7 days; type: organism-based; conditions: in vivo, 168 h
[35] = Acute toxicity in rat assessed as effect on blood chemistry parameters up to 300 mg/kg measured for 7 days; type: organism-based; conditions: in vivo, 168 h
[36] = Clearance in Sprague-Dawley rat at 1 mg/kg, iv measured for 24 hrs by LC-MS/MS analysis; type: ADME, organism-based; conditions: in vivo
[37] = AUC (0 to 24 hrs) in Sprague-Dawley rat at 150 mg/kg, po by LC-MS/MS analysis; type: ADME, organism-based; design: time < 24 hr, dose 150 mg/kg, route oral; conditions: in vivo
[38] = biological target: Cytochrome P450 2C19 (Homo sapiens, UniProt P33261); assay: Inhibition of human recombinant CYP2C19; type: ADME
[39] = biological target: Cytochrome P450 2D6 (Homo sapiens, UniProt P10635); assay: Inhibition of human recombinant CYP2D6; type: ADME
[40] = Hepatic clearance in mouse liver microsomes by LC-MS/MS analysis; type: ADME, Microsome

Cytochrome P450 2C19, sequence (P33261 whole entry): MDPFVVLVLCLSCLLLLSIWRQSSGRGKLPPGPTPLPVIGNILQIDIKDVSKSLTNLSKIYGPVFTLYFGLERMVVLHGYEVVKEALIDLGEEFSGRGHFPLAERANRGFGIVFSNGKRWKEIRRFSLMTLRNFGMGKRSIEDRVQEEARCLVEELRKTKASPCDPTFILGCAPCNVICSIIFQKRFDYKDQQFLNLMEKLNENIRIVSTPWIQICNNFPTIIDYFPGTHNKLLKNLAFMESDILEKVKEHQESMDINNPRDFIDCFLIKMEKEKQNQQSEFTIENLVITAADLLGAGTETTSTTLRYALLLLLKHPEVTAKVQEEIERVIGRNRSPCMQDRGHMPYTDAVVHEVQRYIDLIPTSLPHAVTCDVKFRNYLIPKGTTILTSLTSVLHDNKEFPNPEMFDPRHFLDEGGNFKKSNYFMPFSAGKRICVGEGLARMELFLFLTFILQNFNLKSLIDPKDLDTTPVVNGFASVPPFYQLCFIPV
Voltage-gated inwardly rectifying potassium channel KCNH2, sequence (Q12809 whole entry): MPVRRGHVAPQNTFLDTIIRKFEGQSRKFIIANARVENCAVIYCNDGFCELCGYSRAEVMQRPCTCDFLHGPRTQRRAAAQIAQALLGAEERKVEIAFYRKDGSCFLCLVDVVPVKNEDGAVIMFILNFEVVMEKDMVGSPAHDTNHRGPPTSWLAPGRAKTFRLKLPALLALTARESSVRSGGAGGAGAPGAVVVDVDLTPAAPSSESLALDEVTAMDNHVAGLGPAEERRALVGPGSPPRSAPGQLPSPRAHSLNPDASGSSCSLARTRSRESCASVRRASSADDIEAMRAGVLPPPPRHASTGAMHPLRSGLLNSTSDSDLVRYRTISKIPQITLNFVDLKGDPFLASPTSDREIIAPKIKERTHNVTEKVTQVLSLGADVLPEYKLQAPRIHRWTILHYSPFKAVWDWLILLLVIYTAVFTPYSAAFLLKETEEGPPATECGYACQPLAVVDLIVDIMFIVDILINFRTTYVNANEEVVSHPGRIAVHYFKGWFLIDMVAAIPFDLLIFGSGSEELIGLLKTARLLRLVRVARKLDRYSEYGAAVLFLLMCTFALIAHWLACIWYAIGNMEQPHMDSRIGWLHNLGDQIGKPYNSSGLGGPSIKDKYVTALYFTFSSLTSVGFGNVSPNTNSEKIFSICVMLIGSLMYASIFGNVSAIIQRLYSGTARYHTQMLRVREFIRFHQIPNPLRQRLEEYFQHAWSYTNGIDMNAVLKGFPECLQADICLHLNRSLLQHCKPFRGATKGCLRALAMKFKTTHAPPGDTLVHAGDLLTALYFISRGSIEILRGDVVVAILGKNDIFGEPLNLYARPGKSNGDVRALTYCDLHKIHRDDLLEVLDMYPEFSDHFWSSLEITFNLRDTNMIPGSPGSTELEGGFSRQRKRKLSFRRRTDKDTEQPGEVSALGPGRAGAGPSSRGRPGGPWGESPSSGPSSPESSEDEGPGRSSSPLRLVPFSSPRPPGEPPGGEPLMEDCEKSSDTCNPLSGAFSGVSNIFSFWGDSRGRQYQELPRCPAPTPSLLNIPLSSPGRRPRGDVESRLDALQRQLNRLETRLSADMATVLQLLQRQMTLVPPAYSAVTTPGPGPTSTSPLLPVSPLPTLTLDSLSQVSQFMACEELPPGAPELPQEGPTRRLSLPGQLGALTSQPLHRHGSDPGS
Cytochrome P450 2C9, sequence (P11712 whole entry): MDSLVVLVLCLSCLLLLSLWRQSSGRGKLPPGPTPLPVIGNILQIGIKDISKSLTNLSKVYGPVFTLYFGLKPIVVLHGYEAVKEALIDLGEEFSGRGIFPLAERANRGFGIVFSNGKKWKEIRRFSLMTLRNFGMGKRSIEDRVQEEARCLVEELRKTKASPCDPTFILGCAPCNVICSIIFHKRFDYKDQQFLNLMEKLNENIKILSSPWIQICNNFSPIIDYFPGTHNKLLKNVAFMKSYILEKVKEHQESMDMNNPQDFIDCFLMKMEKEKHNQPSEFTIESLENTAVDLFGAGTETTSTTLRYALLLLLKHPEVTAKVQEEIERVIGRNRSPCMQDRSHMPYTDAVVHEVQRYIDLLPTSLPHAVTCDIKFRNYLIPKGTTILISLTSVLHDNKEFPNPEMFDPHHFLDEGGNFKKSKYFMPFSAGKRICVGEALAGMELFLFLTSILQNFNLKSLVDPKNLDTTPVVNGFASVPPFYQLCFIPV
Cytochrome P450 2D6, sequence (P10635 whole entry): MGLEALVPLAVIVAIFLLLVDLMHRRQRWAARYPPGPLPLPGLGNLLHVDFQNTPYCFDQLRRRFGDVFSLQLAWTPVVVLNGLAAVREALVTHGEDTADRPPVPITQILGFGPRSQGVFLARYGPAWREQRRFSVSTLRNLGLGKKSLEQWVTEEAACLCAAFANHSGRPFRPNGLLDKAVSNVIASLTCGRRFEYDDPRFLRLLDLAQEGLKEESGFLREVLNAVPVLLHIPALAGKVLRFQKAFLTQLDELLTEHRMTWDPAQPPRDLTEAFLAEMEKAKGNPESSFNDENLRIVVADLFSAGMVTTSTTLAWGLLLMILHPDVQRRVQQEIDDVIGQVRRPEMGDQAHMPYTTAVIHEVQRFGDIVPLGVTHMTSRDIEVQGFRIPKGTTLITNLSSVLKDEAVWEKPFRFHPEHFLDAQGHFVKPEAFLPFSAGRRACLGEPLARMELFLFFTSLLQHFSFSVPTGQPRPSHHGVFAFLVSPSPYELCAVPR

## COCc1nnc(N2C[C@@H]3C[C@]3(c3ccc(F)cc3Cl)C2)n1-c1ccc(OC)nc1
[1]
  solubility: 108 µM (≈ 46.2 µg/mL)
[2]
  half-life: 2.23 h
[3]
  IC50: > 30 µM
[4]
  AUC(0-t) at 24 h: 3830 ng·h/mL
[5]
  inhibition in vivo at 10 mg/kg: 17.6%
[6]
  inhibition in vivo at 100 mg/kg: 77.5%
[7]
  IC50: 16 µM
[8]
  half-life: 3.38 h
[9]
  fraction unbound: 0.0352
[10]
  Tmax: 0.67 h
[11]
  fraction unbound: 0.0146
[12]
  Ratio IC50: 192
[13]
  solubility: 420 µM (≈ 180 µg/mL)
[14]
  inhibition in vivo at 30 mg/kg: 65%
[15]
  Tmax: 0.75 h
[16]
  IC50: > 30 µM
[17]
  Ratio IC50: 2500
[18]
  Tmax: 0.63 h
[19]
  Kp uu: 0.188
[20]
  Cmax: 3300 ng/mL
[21]
  selectivity ratio: 10
[22]
  Activity: Toxic
[23]
  AUC(0-t) at 24 h: 1680 ng·h/mL
[24]
  half-life: 1.9 h
[25]
  AUC(0-t) at 24 h: 548 ng·h/mL
[26]
  half-life: 4.64 h
[27]
  AUC(0-t) at 24 h: 16100 ng·h/mL
[28]
  Activity: Non-Toxic
[29]
  Cmax: 930 ng/mL
[30]
  Cmax: 330 ng/mL
[31]
  clearance: 31.3 mL/min/kg
[32]
  Cmax: 350 ng/mL
[33]
  Activity: Non-Toxic
[34]
  Activity: Non-Toxic
[35]
  Activity: Non-Toxic
[36]
  clearance: 16.1 mL/min/kg
[37]
  AUC(0-t) at 24 h: 57200 ng·h/mL
[38]
  IC50: 11 µM
[39]
  IC50: > 30 µM
[40]
  CLhep predicted: 77.4 mL/min/kg
